Test results reported in patent US12319913B2, “5-halouracil-modified microRNAs and their use in the treatment of cancer” (The Research Foundation for The State University of New York, priority 2018, dated 2025).
[5FU] = 5-fluorouracil base replacing uracil

Experiments:
[1] = test system: acute lymphocytic leukemia cell line (REH); experiment: Cell proliferation, REH; type: cell-based, human; settings: 50 nM, 25 nM, 12.5 nM, 6.25 nM, and 3.125 nM
AGS stomach cancer cells = experiment: Cell proliferation, AGS; type: cell-based, human; settings: compared to negative controls
Description: (§1) For transfections, 1×10^5 cells were plated in six-well plates and transfected with 100 nM of control non-specific miRNA (Thermo Fischer), a modified microRNA, or exogenous native microRNA after 24 hours using Oligofectamine (Thermo Fischer) following the manufacturer's protocols. For reagent free transfection, cells were plated in 6 well plates at (1×10^5) cells per well. Twenty-four hours later 100 pmol miRNA (Control, miR-15a, Mimic-1) were diluted in Optimem (Thermo Fischer) and added to the plate. Media was changed after 24 hours. Media was supplemented with 10% fetal bovine serum (Thermo Fischer). Briefly, cells were cultured in growth media (DMEM/F12 supplemented with B27, 10 ng/mL bFGF, and 20 ng/mL EGF (Life Technologies) in ultra-low attachment flasks) for up to 6 days. The spheroid cells were maintained by collection through gentle centrifugation, dissociation to single cells and replating.
(§2) Cell proliferation assay: Twenty-four hours after transfection, cells were seeded in 96-well plates at a density of 2000 cells per well. The cell proliferation assay was performed on days 1 to 5 by incubating 10 μl WST-1 (Roche Applied Science, Mannheim, Germany) in the culture medium for 1 h and reading the absorbance at 450 and 630 nm. The cell proliferation rate was calculated by subtracting the […]. Experiments for the cell proliferation assay were performed at least three times. The O.D. was calculated by subtracting the absorbance at 630 nm from that at 450 nm. Proliferation experiments were performed three times.

RKO colon cancer cells = experiment: WST-1 cell proliferation assay, RKO; type: cell-based, human; settings: in words, vs controls
Description: as §1, with “The spheroid cells were maintained by collection through gentle centrifugation, dissociation to single cells and replating.” left out
as §2, with “Experiments for the cell proliferation assay were performed at least three times.” left out, “Proliferation experiments were performed three times.” left out

colon cancer stem cells = experiment: Anchorage-independent colony formation (soft agar); type: cell-based, human; settings: soft agar / Matrigel matrix
Description: Anchorage-independent proliferation was studied to determine cancer cell colony forming ability. Cancer cells were trypsinized and counted and a total of 1×10^5 cells per well were transfected in 6-well plates with 25 nM modified microRNA or native miRs or a negative control miRNA with oligofectamine, and 6 hours after transfection, cells were recounted. A total of 20,000 cells in 0.35% agar (Bacto Agar; Becton Dickinson) were layered on top of 1 mL of a solidified 0.6% agar layer in a 35-mm dish. Growth media with B27, 10 ng/mL bFGF, and 20 ng/mL EGF were included in both layers. After 2 weeks of incubation, colonies more than […] in diameter were counted.

[2] = test system: acute lymphocytic leukemia cell line (REH); experiment: Cell proliferation, REH; type: cell-based, human; settings: compared to negative controls
Description: as §1, §2

[3] = test system: HCT116 colon cancer cells; experiment: WST-1 cell proliferation assay, HCT116; type: cell-based, human; settings: for inhibition of colon cancer cell proliferation: HCT116, in words, vs controls
Description: as §1, with “1×10^5 cells were plated in six-well plates and transfected with 100 nM of control non-specific miRNA (Thermo Fischer), a modified microRNA, or exogenous native microRNA after 24 hours using Oligofectamine” left out
as §2

[4] = test system: AsPC-1 pancreatic cancer cells; experiment: Cell proliferation, AsPC-1; type: cell-based, human; settings: for cell proliferation, dose dependence: APSC-1, 50 nM, 25 nM, 12.5 nM, 6.25 nM, and 3.125 nM
Description: as §1, with “For transfections, 1×10^5 cells were plated in six-well plates and transfected with 100 nM of control non-specific miRNA (Thermo Fischer), a modified microRNA, or exogenous native microRNA after 24 hours using Oligofectamine (Thermo Fischer) following the manufacturer's protocols.” left out
as §2

SW620 colon cancer cells = experiment: WST-1 cell proliferation assay, SW620; type: cell-based, human; settings: SW620, in words, vs controls
Description: as §1, with “The spheroid cells were maintained by collection through gentle centrifugation, dissociation to single cells and replating.” left out
as §2, with “Experiments for the cell proliferation assay were performed at least three times.” left out, “Proliferation experiments were performed three times.” left out

HCT-116 cells = experiment: Cell cycle analysis by flow cytometry, colon cancer cells; type: cell-based, human
Description: Cell cycle analysis: Twenty-four hours after transfection, cells were harvested and resuspended at 0.5 to 1×10^6 cells/mL in modified Krishan's buffer supplemented with 0.02 mg/mL RNase H and 0.05 mg/mL propidium iodide. Stained cells were detected by flow cytometry and results were analyzed with Modfit LT™ software. The experiments for cell cycle analysis were performed at least three times.

[5] = test system: metastatic human colon cancer cells; experiment: Colon cancer metastasis mouse model, intravenous miRNA delivery; type: in vivo; settings: 40 μg intravenous, every other day for two weeks
Description: For in vivo miRNA delivery experiments, colon cancer cells were created that expressed the lenti-luc reporter gene by infecting parental HCT116 cells with a recombinant lentivirus. Luciferase-expressing HCT116 cells (2.0×10^6 cells per mouse) were suspended in 0.1 mL of PBS solution and was injected through tail vein of each mouse. Two weeks after injection of colon cancer cells, mice were treated via tail vein injection with 40 μg of negative control or modified miR(s) packaged with in vivo-jetPEI (Polyplus Transfection). Mice were treated every other day for 2 weeks (8 times). Following treatment, mice were screened using IVIS Spectrum In vivo Imaging System (IVIS) (PerkinElmer).

A549 lung cancer cells = experiment: Cell proliferation, A549; type: cell-based, human; settings: for lung cancer cell proliferation: A549, compared to negative controls; for inhibition of cell proliferation: A549, compared to unmodified miR or negative controls
Description: as §1, §2

[6] = test system: Hs766T pancreatic cancer cells; experiment: Cell proliferation, Hs766T; type: cell-based, human; settings: compared to negative controls
Description: as §1, §2

Substance | leukemia cancer cell proliferation, dose dependence [1] | gastric cancer cell proliferation (AGS stomach cancer cells) | inhibition of colon cancer cell proliferation (RKO colon cancer cells) | colony / sphere formation (colon cancer stem cells) | leukemia cancer cell proliferation [2] | HCT-116 tumor cell growth ([3]; 50 nM) | inhibition of colon cancer cell proliferation [3] | inhibitory effect on cell proliferation relative to native miR-129 ([3]; HCT-116, FIG. 3) | cell proliferation, dose dependence [4] | inhibition of colon cancer cell proliferation (SW620 colon cancer cells) | G1 arrest, potency relative to native miR-129 (HCT-116 cells; HCT-116, flow cytometry) | colon cancer metastasis [5] | toxicity [5] | toxicity ([5]; listed as modified microRNA-129) | lung cancer cell proliferation (A549 lung cancer cells) | inhibition of cell proliferation (A549 lung cancer cells) | pancreatic cancer cell proliferation [6] | decrease of cell proliferation compared to control ([3]; HCT-116, WST-1, six days after transfection) | inhibition of cell proliferation ([4]; AsPC-1, compared to unmodified miR or negative controls) | increase in the G1/S ratio (HCT-116 cells; colon cancer cells, compared to the control)
CU^FU^FU^FU^FU^FGCGGU^FCU^FGGGCU^FU^FGC (CUUUUUGCGGUCUGGGCUUGC; RNA, [5FU] at 2, 3, 4, 5, 6, 11, 13, 18, 19, backbone not given here) [modified miR-129] | inhibited in a dose dependent manner | inhibited | inhibition of colon cancer cell proliferation | formed no visible spheres | inhibited | suppress HCT-116 tumor cell growth completely | inhibition of colon cancer cell proliferation | much more potent than the native miR-129 | inhibited in a dose dependent manner | inhibition of colon cancer cell proliferation | more than two-fold | inhibits colon cancer metastasis | did not exhibit any toxicity | no toxic side effects | inhibited | enhanced ability to inhibit | inhibited | – | – | –
U^FAGCAGCACAU^FAAU^FGGU^FU^FU^FGU^FG (UAGCAGCACAUAAUGGUUUGUG; RNA, [5FU] at 1, 11, 14, 17, 18, 19, 21, backbone not given here) [modified miR-15a] | inhibited in a dose dependent manner | inhibited | enhanced ability to inhibit colon cancer cell proliferation | no colonies were observed | inhibited | – | enhanced ability to inhibit colon cancer cell proliferation | – | inhibited in a dose dependent manner | enhanced ability to inhibit colon cancer cell proliferation | – | inhibit colon cancer metastasis | did not exhibit any toxicity | – | inhibited | enhanced ability to inhibit | inhibited | 84% | enhanced ability to inhibit | 7 fold
